Experimental data: ChEMBL document CHEMBL4513101, “Naegleria gruberi Pathogen Box compounds screening” (2021)
Active and inactive are the calls of the source. Cut-off read from the data, not from the text of the source: active = inhibition of 80% or more and inactive = less.

Columns and labels:
Naegleria gruberi [1] = details: NEG-M, at 10 µM
Description: (§1) Growth inhibiting activity of Naegleria gruberi in vitro

Naegleria gruberi [2] = assay: microbe, parasite or virus in culture; format: functional; details: NEG-M, CONC 10 uM
Description: as §1

Row | Compound | inhibition (Naegleria gruberi [1]) [%] | inhibition at 10 µM (Naegleria gruberi [2])
1 | MMV688978 | 60.5 | 
2 | Nc1nc2cc(-c3cncc(Oc4ccc(F)cc4)c3)ccc2[nH]1 |  | 35.5% (not active)
3 | COc1ccc(OC)c(NCc2ccc3nc(N)nc(N)c3c2Cl)c1 |  | 33.6% (not active)
4 | COC(=O)Nc1nc2cc(C(=O)c3ccccc3)ccc2[nH]1 [MEBENDAZOLE] |  | 29.8% (not active)
5 | CC(=O)Nc1ccc(-c2noc(CC3CCCN(Cc4cccc(F)c4C)C3)n2)cc1 (configuration not stated) |  | 37.2% (not active)
6 | CC1COC(Cn2cncn2)(c2ccc(Oc3ccc(Cl)cc3)cc2Cl)O1 (configuration not stated) [DIFENOCONAZOLE] |  | 73.3% (not active)
7 | Cc1nc2ccccn2c1C(=O)NCc1ccc(Cl)cc1 |  | 37.8% (not active)
8 | CC(=O)N1CCc2cc3nc(C)cc(C)c3cc21 |  | 19.9% (not active)
9 | O=C(NC1CCN(c2ccnc3ccccc23)C1)c1cccc(C(F)(F)F)c1 (configuration not stated) |  | 6.7% (not active)
10 | FC(F)(F)c1cnc(Sc2nnc(-c3ccncc3)o2)c(Cl)c1 |  | 42.8% (not active)
11 | C[C@H]1c2cccc(O)c2C(=O)C2=C(O)[C@]3(O)C(=O)C(C(N)=O)=C(O)[C@@H](N(C)C)[C@@H]3[C@@H](O)[C@@H]21 [DOXYCYCLINE] |  | 59.8% (not active)
12 | NC(=O)c1cc(Br)ccc1OCCOc1ccccc1 |  | 36.1% (not active)
13 | C[C@@H]1[C@H](O)[C@@H](C)/C=C/C=C/C=C/C=C/C=C/C=C/C=C/[C@H](O[C@@H]2O[C@H](C)[C@@H](O)[C@H](N)[C@@H]2O)C[C@@H]2O[C@](O)(C[C@@H](O)C[C@@H](O)[C@H](O)CC[C@@H](O)C[C@@H](O)CC(=O)O[C@H]1C)C[C@H](O)[C@H]2C(=O)O [AMPHOTERICIN B] |  | 2.4% (not active)
14 | CC1CCCCN1C(=O)NCCc1coc(-c2ccc(F)cc2)n1 (configuration not stated) |  | 42.6% (not active)
15 | CCOc1ccc(-c2nc(NC(=O)CS(=O)(=O)c3ccccc3)sc2C)cc1 |  | 50.9% (not active)
16 | OCCc1ccc(Nc2nccc(-c3nnc4ccccn34)n2)cc1 |  | 18.7% (not active)
17 | O=C(C1CCN(c2nnnn2-c2ccccc2)CC1)N1CCc2ccccc2C1 |  | 25.8% (not active)
18 | Cc1nn(Cc2ccccc2)c(Cl)c1C(=O)NC1CCCCCC1 |  | 36.1% (not active)
19 | N=C(N)Nc1ccc(-c2ccc(-c3ccc(N=C(N)N)c(Cl)c3)o2)cc1Cl |  | 22.3% (not active)
20 | Nc1ncc(-c2ccc(C(F)(F)F)nc2)cc1-c1ccc(C(F)(F)F)nc1 |  | 16.5% (not active)
21 | COC(=O)c1c(NC(=O)c2c(F)c(F)c(F)c(F)c2F)sc2c1CCCCC2 |  | 30.9% (not active)
22 | Cc1[nH]c2ccccc2c1C(c1cccs1)N1CCN(C)CC1 (configuration not stated) |  | 23.9% (not active)
23 | Cc1cc(OCC(=O)Nc2ccc(C(C)C)cc2)n(C)c(=O)c1C#N |  | 18.6% (not active)

Row | Compound | inhibition (Naegleria gruberi [1]) [%] | inhibition at 10 µM (Naegleria gruberi [2])
24 | CCC(Sc1nc2ccccc2o1)C(=O)Nc1nnc(C)s1 (configuration not stated) |  | 8.4% (not active)
25 | Cc1cnc(N2CCN[C@@H](Cc3ccccc3)C2)nc1Oc1ccc(-n2ccnc2)cc1 |  | 9.8% (not active)
26 | CC(C)C(C(=O)Nc1ccc(S(=O)(=O)N(C)C)cc1)c1ccc(Cl)cc1 (configuration not stated) |  | 41% (not active)
27 | Nc1ncc(Br)cc1-c1nc2cc(Cl)cnc2[nH]1 |  | 15.3% (not active)
28 | Nc1ncc(-c2cn[nH]c2)cc1-c1nc2cc(Cl)cnc2[nH]1 |  | 10.2% (not active)
29 | COc1cc(C2=NCCN2)cc2cc(-c3ccc(C4=NCCN4)cc3)oc12 |  | 11.2% (not active)
30 | c1cncc(NCc2ccc(-c3cc4ccncc4cc3OC3CCNCC3)s2)c1 |  | 19.4% (not active)
31 | Cc1ccc(NC(=O)CC2COc3ccccc3O2)cc1Cl (configuration not stated) |  | 79.9% (not active)
32 | CC1=NN(c2nc3ccccc3s2)C(=O)C1Cc1cccc2ccccc12 (configuration not stated) |  | 57.2% (not active)
33 | COc1ccc2nc(C)cc(OCC(=O)Nc3ccccc3OC)c2c1 |  | 34.9% (not active)
34 | N=C(N)c1ccc(OCCCCCOc2ccc(C(=N)N)cc2)cc1 [PENTAMIDINE] |  | 43% (not active)
35 | COc1cccc(-n2nnnc2S(C)(=O)=O)c1 |  | 78.8% (not active)
36 | COc1cc2ncnc(NC3CCN(Cc4ccccc4)CC3)c2cc1OC |  | 13.6% (not active)
37 | O=C(Nc1nnc(S)s1)c1cc(Br)ccc1Cl |  | 11.5% (not active)
38 | CC1CC1C(=O)NC1CCN(CC2(c3ccccc3)CCCCC2)CC1 (configuration not stated) |  | 43.8% (not active)
39 | COc1cc(-c2cc(-c3ccc(S(C)(=O)=O)cc3)cnc2N)ccc1O |  | 67.8% (not active)
40 | CC(=O)N(CCN(C(=O)c1ccc(F)cc1)c1ccccc1)c1ccccc1 |  | 21.3% (not active)
41 | O=C(Nc1ccc(N2CCNCC2)nc1)c1oc(-c2ccccc2)nc1C(F)(F)F |  | 15.4% (not active)
42 | Cc1nn(C(=O)Nc2cccc(C(F)(F)F)c2)c(C)c1Sc1ncccn1 |  | 16.7% (not active)
43 | CN(C)CCNC(=O)N1CCCN(c2ncnc3cc(-c4ccccc4)sc23)CC1 |  | 29.4% (not active)
44 | Oc1c(I)cc(I)c2cccnc12 [IODOQUINOL] |  | 51.6% (not active)
45 | NCC(c1cccs1)S(=O)(=O)c1ccccc1 (configuration not stated) |  | 7.1% (not active)
46 | c1ccc(-c2cc(N3CCCCC3)c3ccccc3n2)nc1 |  | 20.7% (not active)

Row | Compound | inhibition (Naegleria gruberi [1]) [%] | inhibition at 10 µM (Naegleria gruberi [2])
47 | CCCCS(=O)(=O)Nc1ccc2cnn(C)c2c1 |  | 17.4% (not active)
48 | CCCCCCCCCCCCCCCCOP(=O)([O-])OCC[N+](C)(C)C [MILTEFOSINE] |  | 4% (not active)
49 | COc1cccc(CC(=O)N2CCC(n3c(C)nc4ccc(F)cc43)CC2)c1 |  | 19.3% (not active)
50 | Cc1nn(C)c(C)c1NS(=O)(=O)c1c(Cl)cc(-c2ccnc(N3CCNCC3)c2)cc1Cl |  | 58.2% (not active)
51 | O=C(OCc1ccccc1)N1CCC(c2cc(-c3ccncc3)c(-c3ccc(F)cc3)[nH]2)CC1 |  | 42.4% (not active)
52 | CN1CCN(c2cc(-c3ccc(F)cc3)nc(-c3ccncc3)n2)CC1 |  | 30% (not active)
53 | CC(C)(C)C(=O)N(CCCCCCN1C[C@H](O)[C@@H](O)[C@H](O)[C@H]1CO)C1CCCCCC1 |  | 0.1% (not active)
54 | Cc1noc(C)c1C(=O)N1CCCC(c2[nH]c3c(C)cccc3c2-c2ccncc2)C1 (configuration not stated) |  | 27.1% (not active)
55 | O=C(c1ccc(F)cc1)N(CCNc1ccccc1)c1ccccc1 |  | 24.1% (not active)
56 | CC(C)/N=c1\cc2n(-c3ccc(Cl)cc3)c3ccccc3nc-2cc1Nc1ccc(Cl)cc1 [CLOFAZIMINE] |  | 67.9% (not active)
57 | CCN(CC)C(=O)N1CCN(C)CC1 [DIETHYLCARBAMAZINE] |  | 19% (not active)
58 | CCN(CC)S(=O)(=O)c1ccc(Cl)c(C(=O)Nc2ccc3nc(C)sc3c2)c1 |  | 84.7% (active)
59 | CN1CCN(c2nccc3[nH]c(-c4cccc(F)c4)cc23)CC1 |  | 0% (not active)
60 | N#Cc1nc(-c2ccccc2F)oc1NCCc1ccccc1 |  | 4.7% (not active)
61 | COc1cccc(-c2nc3c(N4CCCC4)cccc3n2CC2CCCN2)n1 (configuration not stated) |  | 51.5% (not active)
62 | Cc1c[nH]c(CCNC(=O)c2cc(-c3ccc(Cl)cc3)cs2)n1 |  | 38.3% (not active)
63 | CCc1ccc(C(NCc2nc(N)nc(N(C)C)n2)C(C)C)cc1 (configuration not stated) |  | 18.9% (not active)
64 | CC(=O)NC[C@H]1CN(c2ccc(N3CCSCC3)c(F)c2)C(=O)O1 [SUTEZOLID] |  | 45.7% (not active)
65 | C[C@H](C(N)=O)N1CCCC[C@@H]1c1ccc(OCc2cccc(F)c2)cc1 |  | 13.9% (not active)
66 | Cc1ccc(S(=O)(=O)Nc2ccc(CN3CCN(C(=O)c4cccc(C#N)c4)CC3)cc2)cc1 |  | 19.9% (not active)
67 | c1ccc2c(c1)CN(CC1CC1)CC1(CCN(Cc3c[nH]c4cnccc34)CC1)O2 |  | 4.4% (not active)
